Laboratory results reported in paper doi:10.64898/2025.12.07.692800v1 (biorxiv, 2025).
pEC50, pKd: −log10 of the molar value.

Experiments:
[1] = target: T1, LAG-3-His (recombinant human LAG-3; discussed as LAG-3 D1) (Homo sapiens, UniProt P18627); assay: MST; type: binding
T1 sequence (P18627 23-450 limits assumed): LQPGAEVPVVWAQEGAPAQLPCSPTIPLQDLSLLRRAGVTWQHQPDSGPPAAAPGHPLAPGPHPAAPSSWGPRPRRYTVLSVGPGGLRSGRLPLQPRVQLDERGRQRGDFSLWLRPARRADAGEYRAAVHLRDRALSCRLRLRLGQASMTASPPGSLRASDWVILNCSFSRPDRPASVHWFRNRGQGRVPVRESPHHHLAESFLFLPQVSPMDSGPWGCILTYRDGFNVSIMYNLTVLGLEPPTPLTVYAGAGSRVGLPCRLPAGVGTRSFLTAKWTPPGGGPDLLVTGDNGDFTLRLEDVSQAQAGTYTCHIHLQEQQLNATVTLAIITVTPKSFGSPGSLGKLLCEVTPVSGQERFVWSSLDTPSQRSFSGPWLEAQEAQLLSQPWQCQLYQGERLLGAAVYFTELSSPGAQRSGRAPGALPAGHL

[2] = target: T2, LAG-3 / MHCII (Revvity HTRF Human LAG-3 / MHCII Binding Kit) (Homo sapiens, UniProt P18627); assay: HTRF
T2 sequence (P18627 23-450 limits assumed): T1 sequence (P18627 23-450 limits assumed)

N#Cc1ccnnc1N1CCCC(c2c[nH]c3ncccc23)C1 (centres unmarked) [N05]
pKd [1]: 4.23 | pEC50 [2]: 4.37
